Measurements published in patent publication US11083725B2 (priority 2014, dated 2021).

Test system: NHBE cells
Assay: Biolog metabolic array: substrate use by NHBE cells with or without CA09 infection
Type: cell-based, human
Conditions: for Substrate use, 590 nm absorbance normalized to zero hour, 1 hr: Biolog PMM2, 1 hr; for Substrate use, 590 nm absorbance normalized to zero hour, 5 hr: Biolog PMM2, 5 hr; for Substrate use, 590 nm absorbance normalized to zero hour, 7 hr: Biolog PMM2, 7 hr
[1] = Control (uninfected) NHBE cells
[2] = Virus (CA09, MOI 1) infected NHBE cells
[3] = Virus (CA09-infected, MOI 1) NHBE cells
[4] = Virus: CA09-infected NHBE cells, MOI 1, Biolog PMM2
[5] = Virus (CA09-infected NHBE cells, MOI 1)

## O=C[C@H](O)[C@@H](O)[C@H](O)[C@H](O)C(=O)O [D-Glucuronic Acid]
[1]
  590 nm absorbance normalized to zero hour (substrate use), 1 hr: 1.13
  590 nm absorbance normalized to zero hour (substrate use), 2 hr: 1.37
  590 nm absorbance normalized to zero hour (substrate use), 3 hr: 1.29
  590 nm absorbance normalized to zero hour (substrate use), 4 hr: 1.42
  590 nm absorbance normalized to zero hour (substrate use), 6 hr: 0.86
  590 nm absorbance normalized to zero hour (substrate use), 8 hr: 1.83
  590 nm absorbance normalized to zero hour (substrate use), 9 hr: 1.90
  590 nm absorbance normalized to zero hour (substrate use), 10 hr: 2.04
  590 nm absorbance normalized to zero hour (substrate use), 11 hr: 2.34
  Substrate use, 590 nm absorbance normalized to zero hour, 1 hr: 1.13
  Substrate use, 590 nm absorbance normalized to zero hour, 5 hr: 1.57
  Substrate use, 590 nm absorbance normalized to zero hour, 7 hr: 1.71
[2]
  Substrate use, 590 nm absorbance normalized to zero hour, 1 hr: 1.44
  Substrate use, 590 nm absorbance normalized to zero hour, 5 hr: 2.79
  Substrate use, 590 nm absorbance normalized to zero hour, 7 hr: 3.14
[3]
  590 nm absorbance normalized to zero hour (substrate use), 1 hr: 1.44
  590 nm absorbance normalized to zero hour (substrate use), 2 hr: 1.90
  590 nm absorbance normalized to zero hour (substrate use), 3 hr: 2.18
  590 nm absorbance normalized to zero hour (substrate use), 4 hr: 2.37
  590 nm absorbance normalized to zero hour (substrate use), 6 hr: 2.96
  590 nm absorbance normalized to zero hour (substrate use), 8 hr: 3.24
  590 nm absorbance normalized to zero hour (substrate use), 9 hr: 3.62
  590 nm absorbance normalized to zero hour (substrate use), 10 hr: 3.66
  590 nm absorbance normalized to zero hour (substrate use), 11 hr: 3.99

## OC[C@H]1O[C@H](O[C@H]2O[C@H](CO)[C@@H](O)[C@H](O)[C@H]2O)[C@H](O)[C@@H](O)[C@@H]1O [D-Trehalose]
[1]
  590 nm absorbance normalized to zero hour (substrate use), 0 hr: 1.00
  590 nm absorbance normalized to zero hour (substrate use), 1 hr: 1.68
  590 nm absorbance normalized to zero hour (substrate use), 2 hr: 2.24
  590 nm absorbance normalized to zero hour (substrate use), 3 hr: 2.70
  590 nm absorbance normalized to zero hour (substrate use), 4 hr: 2.88
  590 nm absorbance normalized to zero hour (substrate use), 6 hr: 3.69
  590 nm absorbance normalized to zero hour (substrate use), 8 hr: 4.74
  590 nm absorbance normalized to zero hour (substrate use), 9 hr: 5.11
  590 nm absorbance normalized to zero hour (substrate use), 10 hr: 4.09
  590 nm absorbance normalized to zero hour (substrate use), 11 hr: 4.60
  Substrate use, 590 nm absorbance normalized to zero hour, 1 hr: 1.68
  Substrate use, 590 nm absorbance normalized to zero hour, 5 hr: 3.48
  Substrate use, 590 nm absorbance normalized to zero hour, 7 hr: 4.20
Control (uninfected) NHBE cells, Biolog PMM2, 0 hr
  Substrate use, 590 nm absorbance normalized to zero hour, 0 hr: 1.00
[3]
  590 nm absorbance normalized to zero hour (substrate use), 0 hr: 1.00
  590 nm absorbance normalized to zero hour (substrate use), 1 hr: 1.66
  590 nm absorbance normalized to zero hour (substrate use), 2 hr: 2.04
  590 nm absorbance normalized to zero hour (substrate use), 3 hr: 2.20
  590 nm absorbance normalized to zero hour (substrate use), 4 hr: 2.27
  590 nm absorbance normalized to zero hour (substrate use), 5 hr: 2.52
  590 nm absorbance normalized to zero hour (substrate use), 6 hr: 2.66
  590 nm absorbance normalized to zero hour (substrate use), 7 hr: 2.79
  590 nm absorbance normalized to zero hour (substrate use), 8 hr: 2.93
  590 nm absorbance normalized to zero hour (substrate use), 9 hr: 3.11
  590 nm absorbance normalized to zero hour (substrate use), 10 hr: 3.25
  590 nm absorbance normalized to zero hour (substrate use), 11 hr: 3.07
[4]
  590 nm absorbance normalized to zero hour (substrate use), 0 hr: 1.00
  590 nm absorbance normalized to zero hour (substrate use), 1 hr: 1.66
  590 nm absorbance normalized to zero hour (substrate use), 2 hr: 2.04
  590 nm absorbance normalized to zero hour (substrate use), 3 hr: 2.20
  590 nm absorbance normalized to zero hour (substrate use), 4 hr: 2.27
  590 nm absorbance normalized to zero hour (substrate use), 5 hr: 2.52
  590 nm absorbance normalized to zero hour (substrate use), 6 hr: 2.66
  590 nm absorbance normalized to zero hour (substrate use), 7 hr: 2.79
  590 nm absorbance normalized to zero hour (substrate use), 8 hr: 2.93
  590 nm absorbance normalized to zero hour (substrate use), 9 hr: 3.11
  590 nm absorbance normalized to zero hour (substrate use), 10 hr: 3.25
  590 nm absorbance normalized to zero hour (substrate use), 11 hr: 3.07

## CCCCCC(=O)O [Hexanoic Acid]
[1]
  590 nm absorbance normalized to zero hour (substrate use), 1 hr: 1.35
  590 nm absorbance normalized to zero hour (substrate use), 2 hr: 1.47
  590 nm absorbance normalized to zero hour (substrate use), 3 hr: 2.74
  590 nm absorbance normalized to zero hour (substrate use), 4 hr: 2.80
  590 nm absorbance normalized to zero hour (substrate use), 6 hr: 1.04
  590 nm absorbance normalized to zero hour (substrate use), 8 hr: 4.11
  590 nm absorbance normalized to zero hour (substrate use), 9 hr: 4.10
  590 nm absorbance normalized to zero hour (substrate use), 10 hr: 4.13
  590 nm absorbance normalized to zero hour (substrate use), 11 hr: 3.16
  Substrate use, 590 nm absorbance normalized to zero hour, 1 hr: 1.35
  Substrate use, 590 nm absorbance normalized to zero hour, 5 hr: 1.18
  Substrate use, 590 nm absorbance normalized to zero hour, 7 hr: 4.15
[5]
  590 nm absorbance normalized to zero hour (substrate use), 1 hr: 0.25
  590 nm absorbance normalized to zero hour (substrate use), 2 hr: 0.28
  590 nm absorbance normalized to zero hour (substrate use), 3 hr: 0.31
  590 nm absorbance normalized to zero hour (substrate use), 4 hr: 0.33
  590 nm absorbance normalized to zero hour (substrate use), 5 hr: 0.36
  590 nm absorbance normalized to zero hour (substrate use), 6 hr: 0.37
  590 nm absorbance normalized to zero hour (substrate use), 7 hr: 0.37
  590 nm absorbance normalized to zero hour (substrate use), 8 hr: 0.38
  590 nm absorbance normalized to zero hour (substrate use), 9 hr: 0.36
  590 nm absorbance normalized to zero hour (substrate use), 10 hr: 0.40
  590 nm absorbance normalized to zero hour (substrate use), 11 hr: 0.41
[4]
  590 nm absorbance normalized to zero hour (substrate use), 1 hr: 0.25
  590 nm absorbance normalized to zero hour (substrate use), 2 hr: 0.28
  590 nm absorbance normalized to zero hour (substrate use), 3 hr: 0.31
  590 nm absorbance normalized to zero hour (substrate use), 4 hr: 0.33
  590 nm absorbance normalized to zero hour (substrate use), 5 hr: 0.36
  590 nm absorbance normalized to zero hour (substrate use), 6 hr: 0.37
  590 nm absorbance normalized to zero hour (substrate use), 7 hr: 0.37
  590 nm absorbance normalized to zero hour (substrate use), 8 hr: 0.38
  590 nm absorbance normalized to zero hour (substrate use), 9 hr: 0.36
  590 nm absorbance normalized to zero hour (substrate use), 10 hr: 0.40
  590 nm absorbance normalized to zero hour (substrate use), 11 hr: 0.41
